In article PMC9927415, “Tyrosine Kinase Inhibitors Display Potent Activity against Cryptosporidium parvum” (Microbiology Spectrum, 2022):

How the values were obtained:
Test in all cases: KINOMEscan competitive binding, whole panel
panel of 203 kinases [1] = target: T1, panel of 203 kinases (Homo sapiens, UniProt O94768); settings: 10 µM, n=1; kinase DRAK2; read-out: Percent inhibition DRAK2
T1 construct: purchased DiscoverX (KINOMEscan)
T1 sequence (O94768 1-372): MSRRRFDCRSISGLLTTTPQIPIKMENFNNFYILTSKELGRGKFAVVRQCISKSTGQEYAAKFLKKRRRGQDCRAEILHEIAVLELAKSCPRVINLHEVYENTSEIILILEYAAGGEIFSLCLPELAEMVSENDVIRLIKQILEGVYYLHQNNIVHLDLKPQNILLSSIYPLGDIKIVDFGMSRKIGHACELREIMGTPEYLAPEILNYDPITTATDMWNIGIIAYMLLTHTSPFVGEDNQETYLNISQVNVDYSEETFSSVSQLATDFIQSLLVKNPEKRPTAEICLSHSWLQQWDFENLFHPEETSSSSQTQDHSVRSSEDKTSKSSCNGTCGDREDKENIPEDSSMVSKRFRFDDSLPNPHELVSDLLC
How it was run: (§1)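 T7 phage-fused kinases; compound displaces immobilized ATP-site probe ligand; bead-bound kinase quantified; % inhibition reported.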

panel of 203 kinases [2] = target: T2, panel of 203 kinases (Homo sapiens, UniProt O94804); settings: 10 µM, n=1; kinase LOK; read-out: Percent inhibition LOK
T2 construct: purchased DiscoverX (KINOMEscan)
T2 sequence (O94804 whole entry): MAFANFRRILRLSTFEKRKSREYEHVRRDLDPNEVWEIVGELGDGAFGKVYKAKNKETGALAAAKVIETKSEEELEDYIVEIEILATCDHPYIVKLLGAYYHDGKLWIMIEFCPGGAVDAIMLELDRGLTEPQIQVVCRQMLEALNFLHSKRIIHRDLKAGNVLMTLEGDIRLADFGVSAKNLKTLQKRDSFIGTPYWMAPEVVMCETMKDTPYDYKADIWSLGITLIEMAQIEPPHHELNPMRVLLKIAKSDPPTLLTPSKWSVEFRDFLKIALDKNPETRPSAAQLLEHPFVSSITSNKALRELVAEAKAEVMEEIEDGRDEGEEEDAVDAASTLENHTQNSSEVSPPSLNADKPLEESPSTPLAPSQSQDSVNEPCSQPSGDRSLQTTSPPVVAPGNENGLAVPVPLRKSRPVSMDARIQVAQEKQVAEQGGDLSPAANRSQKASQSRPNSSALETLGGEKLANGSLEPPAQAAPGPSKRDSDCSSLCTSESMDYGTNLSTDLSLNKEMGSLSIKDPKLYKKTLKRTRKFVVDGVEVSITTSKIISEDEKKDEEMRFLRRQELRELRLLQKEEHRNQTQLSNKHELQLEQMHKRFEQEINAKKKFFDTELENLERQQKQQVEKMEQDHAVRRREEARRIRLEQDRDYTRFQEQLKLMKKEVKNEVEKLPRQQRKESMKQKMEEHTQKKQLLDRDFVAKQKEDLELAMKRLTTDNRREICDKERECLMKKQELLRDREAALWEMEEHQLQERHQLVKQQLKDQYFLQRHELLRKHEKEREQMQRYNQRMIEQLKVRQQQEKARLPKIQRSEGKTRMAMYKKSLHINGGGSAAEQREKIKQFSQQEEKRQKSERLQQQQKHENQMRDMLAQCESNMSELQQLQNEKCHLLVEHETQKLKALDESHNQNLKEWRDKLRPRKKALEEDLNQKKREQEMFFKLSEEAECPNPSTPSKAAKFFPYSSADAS
How it was run: as §1

panel of 203 kinases [3] = target: T3, panel of 203 kinases (Homo sapiens, UniProt P08581); settings: 10 µM, n=1; kinase MET; read-out: Percent inhibition MET
T3 construct: purchased DiscoverX (KINOMEscan)
T3 sequence (P08581 25-1390): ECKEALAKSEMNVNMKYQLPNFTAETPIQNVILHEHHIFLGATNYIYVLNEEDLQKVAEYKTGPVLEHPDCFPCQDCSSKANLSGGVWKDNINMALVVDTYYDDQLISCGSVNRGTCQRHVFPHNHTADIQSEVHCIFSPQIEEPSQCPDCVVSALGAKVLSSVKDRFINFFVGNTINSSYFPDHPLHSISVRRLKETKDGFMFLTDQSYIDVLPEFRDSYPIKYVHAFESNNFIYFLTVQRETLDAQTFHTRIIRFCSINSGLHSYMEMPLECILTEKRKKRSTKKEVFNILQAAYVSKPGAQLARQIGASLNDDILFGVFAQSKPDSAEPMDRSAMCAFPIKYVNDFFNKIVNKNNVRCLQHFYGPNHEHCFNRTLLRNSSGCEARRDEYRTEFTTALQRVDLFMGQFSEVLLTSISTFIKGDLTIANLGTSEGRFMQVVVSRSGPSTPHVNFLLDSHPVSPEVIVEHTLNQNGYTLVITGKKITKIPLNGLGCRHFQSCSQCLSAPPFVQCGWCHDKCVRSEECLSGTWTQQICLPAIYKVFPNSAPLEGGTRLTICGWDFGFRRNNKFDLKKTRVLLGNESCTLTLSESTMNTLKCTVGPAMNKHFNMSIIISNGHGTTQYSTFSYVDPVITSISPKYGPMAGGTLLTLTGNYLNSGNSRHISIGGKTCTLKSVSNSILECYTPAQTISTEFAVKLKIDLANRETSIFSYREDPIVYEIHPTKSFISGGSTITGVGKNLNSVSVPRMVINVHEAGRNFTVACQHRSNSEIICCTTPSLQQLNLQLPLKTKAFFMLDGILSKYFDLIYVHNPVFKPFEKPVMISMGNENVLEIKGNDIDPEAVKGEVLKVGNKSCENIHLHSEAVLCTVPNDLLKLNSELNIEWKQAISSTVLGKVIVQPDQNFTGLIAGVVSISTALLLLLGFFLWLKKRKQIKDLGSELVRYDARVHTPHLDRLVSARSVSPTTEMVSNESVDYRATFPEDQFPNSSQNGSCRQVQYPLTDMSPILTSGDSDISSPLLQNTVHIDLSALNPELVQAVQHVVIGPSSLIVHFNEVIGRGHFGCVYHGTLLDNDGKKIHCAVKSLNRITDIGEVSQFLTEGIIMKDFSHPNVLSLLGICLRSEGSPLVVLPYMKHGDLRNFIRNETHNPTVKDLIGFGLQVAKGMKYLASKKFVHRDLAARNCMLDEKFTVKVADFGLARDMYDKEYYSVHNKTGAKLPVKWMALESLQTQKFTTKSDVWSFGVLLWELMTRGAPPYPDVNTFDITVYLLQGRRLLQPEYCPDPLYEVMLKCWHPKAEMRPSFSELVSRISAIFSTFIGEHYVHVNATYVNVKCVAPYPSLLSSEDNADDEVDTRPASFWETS
How it was run: as §1

panel of 203 kinases [4] = target: T4, panel of 203 kinases (Homo sapiens, UniProt P14616); settings: 10 µM, n=1; kinase INSRR; read-out: Percent inhibition INSRR
T4 construct: purchased DiscoverX (KINOMEscan)
T4 sequence (P14616 27-1297): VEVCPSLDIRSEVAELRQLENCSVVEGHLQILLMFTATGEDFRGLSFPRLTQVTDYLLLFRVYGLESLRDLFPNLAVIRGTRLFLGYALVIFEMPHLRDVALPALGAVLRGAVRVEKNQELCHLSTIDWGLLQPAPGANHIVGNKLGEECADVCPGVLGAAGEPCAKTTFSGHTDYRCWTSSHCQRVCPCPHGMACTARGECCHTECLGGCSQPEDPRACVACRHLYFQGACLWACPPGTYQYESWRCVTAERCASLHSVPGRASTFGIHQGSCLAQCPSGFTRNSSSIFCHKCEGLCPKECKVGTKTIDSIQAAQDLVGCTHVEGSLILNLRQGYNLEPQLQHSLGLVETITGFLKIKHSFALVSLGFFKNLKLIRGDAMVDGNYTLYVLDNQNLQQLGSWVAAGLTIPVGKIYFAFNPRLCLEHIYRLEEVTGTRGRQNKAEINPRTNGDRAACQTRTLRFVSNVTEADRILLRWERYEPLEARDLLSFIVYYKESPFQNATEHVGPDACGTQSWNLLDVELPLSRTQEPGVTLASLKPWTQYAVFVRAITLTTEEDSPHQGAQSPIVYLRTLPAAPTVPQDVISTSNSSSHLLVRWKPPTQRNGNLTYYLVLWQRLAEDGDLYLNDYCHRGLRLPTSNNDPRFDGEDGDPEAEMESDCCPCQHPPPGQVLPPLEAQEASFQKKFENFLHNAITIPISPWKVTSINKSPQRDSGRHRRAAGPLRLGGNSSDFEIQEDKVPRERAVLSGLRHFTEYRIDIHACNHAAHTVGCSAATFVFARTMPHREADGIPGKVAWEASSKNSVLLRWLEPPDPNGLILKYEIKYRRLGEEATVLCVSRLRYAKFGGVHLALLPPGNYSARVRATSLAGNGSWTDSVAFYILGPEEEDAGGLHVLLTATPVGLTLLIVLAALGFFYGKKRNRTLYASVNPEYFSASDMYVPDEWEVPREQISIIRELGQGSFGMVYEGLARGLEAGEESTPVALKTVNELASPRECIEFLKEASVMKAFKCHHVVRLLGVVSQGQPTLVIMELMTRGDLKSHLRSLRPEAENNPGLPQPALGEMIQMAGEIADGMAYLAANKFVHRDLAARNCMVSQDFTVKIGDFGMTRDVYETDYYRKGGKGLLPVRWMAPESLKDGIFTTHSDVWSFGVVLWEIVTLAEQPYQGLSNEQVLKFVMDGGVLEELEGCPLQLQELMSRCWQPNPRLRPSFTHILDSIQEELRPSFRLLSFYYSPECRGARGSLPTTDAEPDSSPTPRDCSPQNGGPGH
How it was run: as §1

panel of 203 kinases [5] = target: T5, panel of 203 kinases (Homo sapiens, UniProt Q8TD19); settings: 10 µM, n=1; kinase NEK9; read-out: Percent inhibition NEK9
T5 construct: purchased DiscoverX (KINOMEscan)
T5 sequence (Q8TD19 1-979): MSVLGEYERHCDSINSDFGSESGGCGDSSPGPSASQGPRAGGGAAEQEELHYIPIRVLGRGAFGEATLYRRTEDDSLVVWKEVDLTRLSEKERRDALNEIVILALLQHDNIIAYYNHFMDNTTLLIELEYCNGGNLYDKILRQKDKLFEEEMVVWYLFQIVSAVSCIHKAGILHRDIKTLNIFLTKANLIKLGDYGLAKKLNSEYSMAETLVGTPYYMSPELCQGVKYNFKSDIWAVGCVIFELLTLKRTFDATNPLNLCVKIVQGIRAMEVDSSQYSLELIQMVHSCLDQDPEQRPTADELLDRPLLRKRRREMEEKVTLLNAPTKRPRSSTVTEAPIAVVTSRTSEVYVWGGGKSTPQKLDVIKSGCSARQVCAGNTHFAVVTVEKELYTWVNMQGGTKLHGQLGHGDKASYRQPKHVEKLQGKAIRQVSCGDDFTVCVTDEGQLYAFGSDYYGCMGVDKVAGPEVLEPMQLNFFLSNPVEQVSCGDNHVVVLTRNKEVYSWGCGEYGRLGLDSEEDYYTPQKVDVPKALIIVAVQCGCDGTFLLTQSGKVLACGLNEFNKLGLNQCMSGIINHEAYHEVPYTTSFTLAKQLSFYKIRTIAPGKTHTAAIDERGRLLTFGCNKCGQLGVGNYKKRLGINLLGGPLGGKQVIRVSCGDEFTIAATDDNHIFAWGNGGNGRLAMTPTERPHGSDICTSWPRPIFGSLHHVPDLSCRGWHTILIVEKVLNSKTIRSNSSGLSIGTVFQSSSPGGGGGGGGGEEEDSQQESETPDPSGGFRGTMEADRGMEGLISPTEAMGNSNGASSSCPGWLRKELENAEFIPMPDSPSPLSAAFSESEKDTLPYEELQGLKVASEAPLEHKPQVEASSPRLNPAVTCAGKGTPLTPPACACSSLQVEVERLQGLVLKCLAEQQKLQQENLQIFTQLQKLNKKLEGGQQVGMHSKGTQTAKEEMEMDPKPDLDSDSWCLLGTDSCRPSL
How it was run: as §1

panel of 203 kinases [6] = target: T6, panel of 203 kinases (Homo sapiens, UniProt Q92918); settings: 10 µM, n=1; kinase MAP4K1; read-out: Percent inhibition MAP4K1
T6 construct: purchased DiscoverX (KINOMEscan)
T6 sequence (Q92918 whole entry): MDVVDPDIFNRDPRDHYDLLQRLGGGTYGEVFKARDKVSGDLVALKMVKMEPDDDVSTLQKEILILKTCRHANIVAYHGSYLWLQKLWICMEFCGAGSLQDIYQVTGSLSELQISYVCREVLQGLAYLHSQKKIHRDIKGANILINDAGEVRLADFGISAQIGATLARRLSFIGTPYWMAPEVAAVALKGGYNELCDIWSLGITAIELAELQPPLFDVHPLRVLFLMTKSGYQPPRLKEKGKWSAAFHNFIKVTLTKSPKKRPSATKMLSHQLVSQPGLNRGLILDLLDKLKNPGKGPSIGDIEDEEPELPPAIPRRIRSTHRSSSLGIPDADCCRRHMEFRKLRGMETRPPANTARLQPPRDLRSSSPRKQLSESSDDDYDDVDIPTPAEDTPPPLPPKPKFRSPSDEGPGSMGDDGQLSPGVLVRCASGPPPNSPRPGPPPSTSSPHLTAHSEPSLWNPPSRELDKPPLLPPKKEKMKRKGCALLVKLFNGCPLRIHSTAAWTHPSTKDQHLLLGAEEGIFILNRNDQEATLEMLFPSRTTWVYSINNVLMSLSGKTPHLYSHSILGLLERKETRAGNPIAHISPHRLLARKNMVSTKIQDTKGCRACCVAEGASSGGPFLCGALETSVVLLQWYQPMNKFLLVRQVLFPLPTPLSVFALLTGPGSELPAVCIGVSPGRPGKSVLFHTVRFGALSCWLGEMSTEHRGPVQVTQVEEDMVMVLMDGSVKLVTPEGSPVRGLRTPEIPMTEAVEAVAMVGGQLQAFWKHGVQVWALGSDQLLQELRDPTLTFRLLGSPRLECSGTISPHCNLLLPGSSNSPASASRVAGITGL
How it was run: as §1

panel of 203 kinases [7] = target: T7, panel of 203 kinases (Homo sapiens, UniProt Q9UF33); settings: 10 µM, n=1; kinase EPHA6; read-out: Percent inhibition EPHA6
T7 construct: purchased DiscoverX (KINOMEscan)
T7 sequence (Q9UF33 23-1036): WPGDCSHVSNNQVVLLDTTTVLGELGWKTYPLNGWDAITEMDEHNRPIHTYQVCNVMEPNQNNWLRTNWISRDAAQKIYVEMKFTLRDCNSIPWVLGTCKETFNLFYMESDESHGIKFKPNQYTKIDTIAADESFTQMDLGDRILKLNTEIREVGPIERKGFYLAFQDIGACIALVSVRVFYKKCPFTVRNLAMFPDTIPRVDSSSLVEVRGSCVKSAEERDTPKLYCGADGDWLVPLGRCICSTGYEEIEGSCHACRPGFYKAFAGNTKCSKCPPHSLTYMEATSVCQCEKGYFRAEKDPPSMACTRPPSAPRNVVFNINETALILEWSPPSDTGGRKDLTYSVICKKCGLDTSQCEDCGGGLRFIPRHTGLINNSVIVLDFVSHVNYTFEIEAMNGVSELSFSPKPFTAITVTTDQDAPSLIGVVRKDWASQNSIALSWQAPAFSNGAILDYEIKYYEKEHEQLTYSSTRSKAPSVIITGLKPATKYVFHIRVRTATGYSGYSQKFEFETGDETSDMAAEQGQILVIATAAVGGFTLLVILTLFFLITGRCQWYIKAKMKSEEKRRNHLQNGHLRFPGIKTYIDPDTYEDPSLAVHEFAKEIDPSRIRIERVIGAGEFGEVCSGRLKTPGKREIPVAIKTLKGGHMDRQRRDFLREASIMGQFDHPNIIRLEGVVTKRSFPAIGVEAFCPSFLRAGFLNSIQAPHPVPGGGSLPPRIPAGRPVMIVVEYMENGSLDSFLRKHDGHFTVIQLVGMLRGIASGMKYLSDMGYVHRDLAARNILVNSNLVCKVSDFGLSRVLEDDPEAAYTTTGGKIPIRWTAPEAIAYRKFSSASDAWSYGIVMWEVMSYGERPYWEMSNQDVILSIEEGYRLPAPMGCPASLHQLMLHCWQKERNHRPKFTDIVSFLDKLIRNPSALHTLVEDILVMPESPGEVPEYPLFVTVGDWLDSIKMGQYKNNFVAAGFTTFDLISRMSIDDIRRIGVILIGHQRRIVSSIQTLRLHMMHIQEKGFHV
How it was run: as §1

`CN1CCN(c2ccc(Nc3nccc(-c4cnn5ncccc45)n3)cc2C#N)CC1` [Compound 1] was tested, and the inhibition at 10 µM (panel of 203 kinases [1]) was 82.4%, the inhibition at 10 µM (panel of 203 kinases [2]) was 88.7% and the inhibition at 10 µM (panel of 203 kinases [3]) was 0%. The inhibition at 10 µM (panel of 203 kinases [4]) was 99.2%, the inhibition at 10 µM (panel of 203 kinases [5]) was 99.2% and the inhibition at 10 µM (panel of 203 kinases [6]) was 99.5%. It also gave an inhibition at 10 µM (panel of 203 kinases [7]) of 0%.
`COc1ccc(Nc2nccc(-c3cnn4ncccc34)n2)cc1` [Compound 2] was tested, and the inhibition at 10 µM (panel of 203 kinases [1]) was 88.6%, the inhibition at 10 µM (panel of 203 kinases [2]) was 0% and the inhibition at 10 µM (panel of 203 kinases [3]) was 68.8%. For the same molecule, the inhibition at 10 µM (panel of 203 kinases [4]) was 87.2%, the inhibition at 10 µM (panel of 203 kinases [5]) was 100% and the inhibition at 10 µM (panel of 203 kinases [6]) was 0%. The inhibition at 10 µM (panel of 203 kinases [7]) was 65.1%.
Work on `Cc1ccc(O)cc1Nc1ccnc(Nc2cccc(C(N)=O)c2)n1` [Compound 3] yielded an inhibition at 10 µM (panel of 203 kinases [1]) of 0%, an inhibition at 10 µM (panel of 203 kinases [2]) of 82.6% and an inhibition at 10 µM (panel of 203 kinases [3]) of 0%. The inhibition at 10 µM (panel of 203 kinases [4]) was 0%, the inhibition at 10 µM (panel of 203 kinases [5]) was 0% and the inhibition at 10 µM (panel of 203 kinases [6]) was 83.9%. It also gave an inhibition at 10 µM (panel of 203 kinases [7]) of 100%.
`Cc1ccc(O)cc1N(C)c1ccnc(Nc2cccc(S(N)(=O)=O)c2)n1` [Compound 4] gave an inhibition at 10 µM (panel of 203 kinases [1]) of 0%, an inhibition at 10 µM (panel of 203 kinases [2]) of 99.6% and an inhibition at 10 µM (panel of 203 kinases [3]) of 90.2%. The inhibition at 10 µM (panel of 203 kinases [4]) was 0%, the inhibition at 10 µM (panel of 203 kinases [5]) was 0% and the inhibition at 10 µM (panel of 203 kinases [6]) was 99.5%. For the same molecule, the inhibition at 10 µM (panel of 203 kinases [7]) was 100%.
With `Fc1cccc(COc2ccc(Nc3ncnc4c3CN(CCN3CCOCC3)CC4)cc2Cl)c1` [Compound 6] the inhibition at 10 µM (panel of 203 kinases [1]) was 0%, the inhibition at 10 µM (panel of 203 kinases [2]) was 0% and the inhibition at 10 µM (panel of 203 kinases [3]) was 0%. The inhibition at 10 µM (panel of 203 kinases [4]) was 0%, the inhibition at 10 µM (panel of 203 kinases [5]) was 0% and the inhibition at 10 µM (panel of 203 kinases [6]) was 0%. The inhibition at 10 µM (panel of 203 kinases [7]) was 0%.
`COc1cc(Nc2nccc(-c3sc(N)nc3-c3cccc(NC(=O)c4c(F)cccc4F)c3)n2)cc(OC)c1OC` [Compound 7] showed an inhibition at 10 µM (panel of 203 kinases [1]) of 0%, an inhibition at 10 µM (panel of 203 kinases [2]) of 100% and an inhibition at 10 µM (panel of 203 kinases [3]) of 99.6%. It also gave an inhibition at 10 µM (panel of 203 kinases [4]) of 97.8%, an inhibition at 10 µM (panel of 203 kinases [5]) of 88.9% and an inhibition at 10 µM (panel of 203 kinases [6]) of 96.3%. For the same molecule, the inhibition at 10 µM (panel of 203 kinases [7]) was 100%.
In the case of `C[C@@H](Oc1cc(-c2cnc3ccccn23)sc1C(N)=O)c1ccccc1Cl` [Compound 8], the inhibition at 10 µM (panel of 203 kinases [1]) is reported as 0%, the inhibition at 10 µM (panel of 203 kinases [2]) is reported as 100% and the inhibition at 10 µM (panel of 203 kinases [3]) is reported as 78.4%. It also gave an inhibition at 10 µM (panel of 203 kinases [4]) of 0%, an inhibition at 10 µM (panel of 203 kinases [5]) of 94.7% and an inhibition at 10 µM (panel of 203 kinases [6]) of 0%. The inhibition at 10 µM (panel of 203 kinases [7]) was 0%.
For `c1ccc(COc2cccc(-c3ccnc4[nH]ccc34)c2)cc1` [Compound 9], the inhibition at 10 µM (panel of 203 kinases [1]) was 0%, the inhibition at 10 µM (panel of 203 kinases [2]) was 0% and the inhibition at 10 µM (panel of 203 kinases [3]) was 0%. For the same molecule, the inhibition at 10 µM (panel of 203 kinases [4]) was 0%, the inhibition at 10 µM (panel of 203 kinases [5]) was 0% and the inhibition at 10 µM (panel of 203 kinases [6]) was 0%. It also gave an inhibition at 10 µM (panel of 203 kinases [7]) of 0%.
Work on `Clc1ccc(Nc2ncc(-c3ccccc3)s2)cc1` [Compound 10] yielded an inhibition at 10 µM (panel of 203 kinases [1]) of 0%, an inhibition at 10 µM (panel of 203 kinases [2]) of 0% and an inhibition at 10 µM (panel of 203 kinases [3]) of 0%. The inhibition at 10 µM (panel of 203 kinases [4]) was 0%, the inhibition at 10 µM (panel of 203 kinases [5]) was 0% and the inhibition at 10 µM (panel of 203 kinases [6]) was 0%. The inhibition at 10 µM (panel of 203 kinases [7]) was 0%.
Work on `Nc1ncc2c(-c3ccncc3)c[nH]c2n1` [Compound 11] yielded an inhibition at 10 µM (panel of 203 kinases [1]) of 89.7%, an inhibition at 10 µM (panel of 203 kinases [2]) of 0% and an inhibition at 10 µM (panel of 203 kinases [3]) of 0%. It also gave an inhibition at 10 µM (panel of 203 kinases [4]) of 0%, an inhibition at 10 µM (panel of 203 kinases [5]) of 0% and an inhibition at 10 µM (panel of 203 kinases [6]) of 0%. It also gave an inhibition at 10 µM (panel of 203 kinases [7]) of 0%.
